The values below come from US11643431B2, “Uses of hyaluronan conjugate” (priority 2020, dated 2023).

In series [1] the test system is IL-6 level in LPS-induced A549 cells. In words: IL-6 level in LPS-induced A549 cells (ELISA). The conditions noted are these: 0.5 μg/mL LPS, 4.94-400 μM, 48 hours, vs LPS alone, p<0.05. It is filed as cell-based, human. The method, then: In this example, A549 cells (human alveolar basal epithelial cells) were used to assess the effect of the present NIM-HA conjugate (CA102N) on the IL-6 level.
A549 cells in 600 μL F-12K medium were seeded in a density of 5×10^4 per 24-well and incubated overnight. The next day, the medium was discarded and replaced with a fresh medium containing 1 μg/mL LPS with 0, 0.1, 0.2, 0.4 and 0.8 mg/mL CA102N (eq. 0, 5.9, 11.8, 23.6 and 47.2 μM) conjugate or 5 μg/mL (12.7 μM) dexamethasone, which was then incubated for 48 hours. Then, 300 μL of supernatants were collected, and the IL-6 level was measured using a Human IL-6 Uncoated ELISA kit (Catalogue No. 88-7066; Invitrogen). Cells not treated with LPS are used as the negative control, whereas cells treated with LPS but not CA102N are used as the positive control. The results were summarized in FIG. 3, and the data were expressed as mean±standard deviation (SD).
A549 cells in 600 μL F-12K medium were seeded in a density of 2×10^4 per 24-well and incubated overnight. […] Then, 300 μL of supernatants were collected, and the IL-6 level was measured using Human IL-6 Uncoated ELISA kit (Catalogue No. 88-7066; Invitrogen). […] The results were summarized in FIG. 4, and the data were expressed as mean±standard deviation (SD).

A further series relates to SARS-CoV-2 pseudovirus. The series is described as follows: In vivo SARS-CoV-2 pseudovirus infection, lung luminescence (IVIS). Set-up: species or system BALB/c mice. The settings on record: vs positive control.
Series [2] deals with SARS-CoV-2 pseudotyped lentivirus. It is filed as cell-based.
The conditions of series [3]: prior studies; cited from earlier work.
A further series has as its system IL-6, KC/GRO and MCP-1. The series is described as follows: Serum IL-6 and IL-6 downstream chemokines in CT26 tumor-bearing mice. The conditions noted are these: nimesulide alone 1.5 mg/kg and 5.3 mg/kg i.v. It is filed as in vivo.

Method for IL-6, KC/GRO and MCP-1: When the tumor volumes reached 25-50 mm^3, tumor-bearing mice were randomized to six groups: vehicle control, 50 mg/kg NIM-HA (eq. 1.3 mg/kg Nim) conjugate, 100 mg/kg (eq. 2.6 mg/kg Nim) NIM-HA conjugate, 200 mg/kg (eq. 5.2 mg/kg Nim) NIM-HA conjugate, 1.5 mg/kg nimesulide, and 5.3 mg/kg nimesulide. The vehicle or test samples were i.v. injected two times weekly for two weeks.
The serum level of IL-6 and two IL-6 downstream chemokines (KC/GRO and MCP-1) were measured following conventional protocols.

Take `CC(=O)NC1C(O)OC(CO)C(O)C1OC1OC(C(=O)Nc2ccc(NS(C)(=O)=O)c(Oc3ccccc3)c2)C(O)C(O)C1O` (stereo not drawn) [NIM-HA disaccharide conjugate]: in series [1], the IL-6 level entry is given as “substantially decrease the IL-6 level in LPS-treated cells in a dose-dependent manner”.

`CS(=O)(=O)Nc1ccc([N+](=O)[O-])cc1Oc1ccccc1` [nimesulide, N-(4-nitro-2-phenoxyphenyl)methanesulfonamide]: the “SARS-CoV-2 pseudovirus infection (lung luminescence)” value with SARS-CoV-2 pseudovirus (4 mg/kg nimesulide i.v. 1 hour before intra-tracheal pseudovirus, 24 hours, p<0.05) is given as “inhibit significantly compared to the positive control”. In addition, the “inhibition of SARS-CoV-2 pseudovirus entry (in words)” value in series [2] is listed as “cannot inhibit SARS-CoV-2 pseudovirus infection by blocking the viral entry”. Moreover, the hepatotoxicity entry in series [3] was “significantly associated with hepatotoxicity”. Further, the IL-6 blockade result with IL-6, KC/GRO and MCP-1 was “cannot elicit any effect on IL-6 blockade”.

In the case of hyaluronic acid [HA], the “SARS-CoV-2 pseudovirus infection (lung luminescence)” value in the series with SARS-CoV-2 pseudovirus (HA group (dose not given)) was “no significant difference between the HA group and the positive control”.
